Results on 13 compounds are retold here after article PMC10470491, “Modulation of the functional interfaces between retroviral intasomes and the human nucleosome” (mBio, 2023).

SMILES strings stand for the structures. “Also recorded” adds a separate entry of the source. *1 amine or outer side, *2 acyl side, *3 side chain or, on linkers, in order; H or OH if unused. Where a SMILES comes first, the peptide text is derived from it. Bridges are numbered along the chain shown (N, C = ends). Roman numbers before positions name the chains, in order. [ ]: non-standard residue; d: D form. Actinocin(9to1) = Cc1c2oc3c(C)ccc(C(=O)[*:1])c3nc-2c(C(=O)[*:2])c(N)c1=O; NMeV = CN[C@H](C(=O)O)C(C)C; Sar = CNCC(=O)O

Assay [1] concerns PFV intasome/nucleosome complex. The experiment in a line: AlphaLISA PFV intasome/nucleosome interaction assay. It counts as binding, prototype foamy virus (PFV); human mononucleosome. Particulars: for IC50: intasome/nucleosome AS assay, Fig. 3E; for IC50 / inhibition of intasome/nucleosome association in AS: increasing drug concentrations; for selection as intasome/nucleosome modulator in the OncoSET screen: 25 µM. On the procedure:
AlphaLISA is a technology particularly suitable for bimolecular inhibitor screening assays using protein-protein interactions with purified recombinant proteins. The AlphaLISA assay development was performed in 96-well 12 area Alphaplate (reference 6052340, PerkinElmer, Waltham, MA, USA) with a final reaction volume of 40 µL. Cross-titration experiments of biotinylated MN (0–50 nM) against DIG-intasome (0–100 nM) were carried out to establish optimal assay concentrations for the binding assay. Ten microliters of each protein were diluted in the binding buffer 50 mM BisTris-propane pH 7, 100 mM NaCl, 0.1% (v/v) Tween-20, 0.1% (w/v) BSA, and 1 mM dithiothreitol. The plate was incubated at RT for 2 h in rotation. Ten microliters of anti-DIG acceptor beads (PerkinElmer, reference AL113) were then added, and after 1 h of incubation at RT with rotation, 10 µL of streptavidin […] (Perkin Elmer, reference 6760002) was mixed to the wells. This established a final concentration of 20 µg/mL for each bead. The plate was then incubated for 1 h at RT in the dark before the AlphaLISA signal was detected using an EnSpire Multimode Plate Reader (PerkinElmer). Negative control with binding buffer or only with one of the complexes was used to control the assay quality. Data were analyzed with GraphPad Prism 5.01 software. To evaluate tolerance for DMSO, the assay was performed as described above with an addition of 0.15–20% (v/v) of DMSO during the binding step. For the competition experiment, increasing concentrations of untagged intasome were titrated out in the 1-nM DIG-intasome/biotinylated nucleosome interaction assay.
For the AlphaLISA screening assay with the NIH OncoSET library, the binding conditions were optimized for use in 384-well plate (Optiplate, reference 6007290, PerkinElmer) with the same concentrations for complexes and beads in a final reaction volume of 20.5 µL (2.5% DMSO final concentration). The screening was first carried out with 25 µM of each compound pre-incubated for 1 h with 1 nM intasome/nucleosome complexes. Compounds were selected as inducing at least 50% decrease of the AlphaLISA signal control condition, and their inhibitory effect was further tested using dose-response curves. For compounds validation, counter select assay was performed using a short DNA fragment carrying a biotin and a DIG tag on each side. The AlphaLISA signal was monitoring using increasing concentrations of the double-tagged DNA, and the selected compounds were tested in optimized conditions at 10 µM. Any compound that causes decreased signal means that it interferes with AlphaLISA readout, and therefore, it is not relevant to this assay.
(Bead proximity is the source of the signal in Alpha formats.)

Assay [2] concerns mononucleosome (MN). The experiment in a line: histone eviction assay (EMSA / SDS-PAGE). Particulars: 10 µM or increasing concentrations. It counts as biochemical, human. For orientation: Mobility shift assays separate free from complexed probe on a gel.
Assay [3] concerns the target T1, PFV intasome (Human spumaretrovirus, UniProt P14350). The experiment in a line: biochemical. The note with it: 30 nM FITC PFV intasome, MN, drugs 0–25 µM. Also on record: Briefly, PFV IN and its cognate vDNA were mixed, and assembled intasomes were purified by size exclusion chromatography; octamers produced in E. coli. It counts as biochemical, prototype foamy virus (PFV). The method, then: Integration assays using purified assembled intasomes were performed as followed: either 100 ng of naked DNA or 100 ng of DNA assembled on 100 ng of histone octamers (24 nM final concentration) was incubated with 30 nM final concentration of purified intasome in 100 mM NaCl, 20 mM BTP pH 7, 12.5 mM MgSO4 (for PFV intasome), or in 20 mM HEPES pH 7, 7.5% DMSO, 8% PEG, 10 mM MgCl2, 20 µM ZnCl2, 100 mM NaCl, 5 mM DTT final concentration (for HIV-1 intasome) in a final volume of 40 µL. The mix was then incubated at 37°C for 15 min and 1 h, respectively. Then, reaction was stopped by the addition of 5.5 µL of a mix containing 5% SDS and 0.25 M EDTA and deproteinized with proteinase K (Promega) for 1 h at 37°C. Nucleic acids were then precipitated with 150 µL of ethanol overnight at −20°C. Samples were then spun at top speed for 1 h at 4°C, and the pellets were dried and then resuspended with DNA loading buffer. Integration products were separated on an 8% native polyacrylamide gel.

For assay [4], the system named is HIV-1 intasome (vDNA•IN•LEDGF/p75). In words: in vitro HIV-1 concerted integration onto mononucleosome. Format: biochemical. Particulars: MN.
In assay [5] the target is T1, PFV intasome. In words: in vitro PFV integration into naked plasmid pBSK-601-Zeo DNA. It counts as biochemical, prototype foamy virus (PFV). Also on record: Briefly, PFV IN and its cognate vDNA were mixed, and assembled intasomes were purified by size exclusion chromatography; made in house. Particulars: 10 µM. On the procedure: MNs were assembled as previously described for chromatin assembly ([7], [8]). Briefly, 5 µg of biotinylated 147 bp Widom fragment (TEBU-bio) were mixed with an excess of 10 µg of human native recombinant octamers produced in E. coli [purchased from the “Histone Source” Protein Expression and Purification (PEP) facility from the Colorado State University, https://histonesource-colostate.nbsstore.net] in Tris-HCl pH 7.7 and 2 M NaCl in 100 µl final volume. Salt dialysis was then performed to decrease the salt concentration to 0 using slide-A-Lyzer MINI dialysis device, 7 k MWCO (Fisher Scientific). Assembly was checked by electro-mobility shift assay (EMSA) on 8% native PAGE stained with SYBR safe and SDS-PAGE stained with instant blue. Eviction assays of the assembled nucleosome were incubated with increasing concentrations of drugs and then analyzed by EMSA or SDS-PAGE of the supernatant after their capture using streptavidin beads (MyONE T1 invitrogen). Naked DNA substrates (pBSK-601-Zeo vector plasmid containing 601 Widom repetitions or 147 bp 601 DNA fragment) used for comparative integration assays were treated as for nucleosome assembly. […]

Where [6] appears, read: OncoSET screen, 25 µM drug, 1 nM of each partner.

In the case of `COc1cccc2c1C(=O)c1c(O)c3c(c(O)c1C2=O)C[C@@](O)(C(C)=O)C[C@@H]3O[C@H]1C[C@H](N)[C@H](O)[C@H](C)O1` [Daunorubicin, daunorubicin], the “decrease in the AS signal” value in assay [1] (setting [6]) is reported as “at least 50%”. The compound further came in with an IC50 in assay [1] of 3240 ± 18 nM. Also, the “effect on the intasome/nucleosome AS signal” value in assay [1] (retest at 10 µM, MN) is reported as “strong inhibitory effect”. Further, the “histone eviction / MN dissociation” value in assay [2] was “strong displacement of histones from the MN”. The “inhibition of PFV integration into MNs” value in assay [3] was “able to inhibit PFV integration into MNs”.
Turning to `COc1cccc2c1C(=O)c1c(O)c3c(c(O)c1C2=O)C[C@@](O)(C(=O)CO)C[C@@H]3O` [Doxorubicinone, doxorubicinone], in assay [2], the “histone eviction / MN dissociation” value is listed as “could not dissociate the MN”. Besides, the “inhibition of in vitro HIV-1 integration” value in assay [4] is “inefficient”. In addition, the “inhibition of PFV integration into MNs” value in assay [3] is reported as “inefficient in inhibiting the in vitro integration”.
Consider `CC(=O)[C@]1(O)Cc2c(O)c3c(c(O)c2[C@@H](O[C@H]2C[C@H](N)[C@H](O)[C@H](C)O2)C1)C(=O)c1ccccc1C3=O` [Idarubicin, idarubicin], for which the “decrease in the AS signal” value in assay [1] (setting [6]) was “at least 50%”. The IC50 in assay [1] came to 450 ± 22 nM. For the same compound, the “effect on the intasome/nucleosome AS signal” value in assay [1] (retest at 10 µM, MN) is “strong inhibitory effect”. Besides, in assay [2], the “histone eviction / MN dissociation” value is “strong displacement of histones from the MN”. Also, in assay [3], the “inhibition of PFV integration into MNs” value is listed as “able to inhibit PFV integration into MNs”.
For `O=C1c2c(O)ccc(O)c2C(=O)c2c(NCCNCCO)ccc(NCCNCCO)c21` [Mitoxantrone, mitoxantrone], the “decrease in the AS signal” value in assay [1] (setting [6]) is listed as “at least 50%”. Moreover, the IC50 in assay [1] is 380 ± 50 nM. Further, the “effect on the intasome/nucleosome AS signal” value in assay [1] (retest at 10 µM, MN) is on record as “strong inhibitory effect”. For the same compound, the “inhibition of PFV integration into plasmid pBSK-601-Zeo DNA” value in assay [5] was “remained inefficient”. Further, the “inhibition of PFV integration into MNs” value in assay [3] is “did not show any inhibitory effect on integration”.
With `C=CC(=O)Nc1cc(Nc2nccc(-c3cn(C)c4ccccc34)n2)c(OC)cc1N(C)CCN(C)C` [Osimertinib, osimertinib], the “decrease in the AS signal” value in assay [1] (setting [6]) is reported as “at least 50%”; in assay [1] (retest at 10 µM, MN), 30–40%. Besides, the “inhibition of intasome/nucleosome association in AS” value in assay [1] is “no inhibition in the concentration range used”.
Regarding `COc1cccc2c1C(=O)c1c(O)c3c(c(O)c1C2=O)C[C@@](O)(C(=O)CO)C[C@@H]3O[C@H]1C[C@H](N)[C@H](O[C@@H]2CCCCO2)[C@H](C)O1` [Pirarubicin, pirarubicin], in assay [1] (setting [6]), the “decrease in the AS signal” value is given as “at least 50%”. The compound also showed an IC50 in assay [1] of 630 ± 20 nM. Also, in assay [1] (retest at 10 µM, MN), the “effect on the intasome/nucleosome AS signal” value was “strong inhibitory effect”. In addition, in assay [2], the “histone eviction / MN dissociation” value was “full shift of the nucleosomal DNA in addition to a strong MN dissociation”. Moreover, the “inhibition of PFV integration into MNs” value in assay [3] is given as “able to inhibit PFV integration into MNs”.
On to `CC/C(=C(\c1ccccc1)c1ccc(OCCN(C)C)cc1)c1ccccc1` [Tamoxifen, tamoxifen], for which the “inhibition of intasome/nucleosome association in AS” value in assay [1] was “only a slight inhibition effect”. For the same compound, in assay [5], the “inhibition of PFV integration into plasmid pBSK-601-Zeo DNA” value is reported as “remained inefficient”. Moreover, the “inhibition of PFV integration into MNs” value in assay [3] was “inefficient in inhibiting integration”.
Take `Cc1c2oc3c(C)ccc(C(=O)N[C@@H]4C(=O)N[C@H](C(C)C)C(=O)N5CCC[C@H]5C(=O)N(C)CC(=O)N(C)[C@@H](C(C)C)C(=O)O[C@@H]4C)c3nc-2c(C(=O)N[C@@H]2C(=O)N[C@H](C(C)C)C(=O)N3CCC[C@H]3C(=O)N(C)CC(=O)N(C)[C@@H](C(C)C)C(=O)O[C@@H]2C)c(N)c1=O` [actinomycin D] (I: T[dV]P[Sar][NMeV] / II: T[dV]P[Sar][NMeV]; ester I:1-I:C, II:1-II:C; linker I:N-II:N via Actinocin(9to1)): in assay [1] (OncoSET screen), the “selection as intasome/nucleosome modulator in the OncoSET screen” value was “lack of effect”.
Regarding `N.N.[Cl][Pt][Cl]` [cisplatin], the “inhibition of PFV integration into MNs” value in assay [3] is “only a slight inhibition of integration into nucleosome”.
`COc1cccc2c1C(=O)c1c(O)c3c(c(O)c1C2=O)C[C@@](O)(C(=O)CO)C[C@@H]3O[C@H]1C[C@H](N)[C@@H](O)[C@H](C)O1` [epirubicin]: the “selection as intasome/nucleosome modulator in the OncoSET screen” value in assay [1] (OncoSET screen) was “not selected as an intasome/nucleosome modulator; also recorded: inefficient in inhibiting the intasome/nucleosome complex”.
For the compound `O=C1CCC(N2C(=O)c3ccccc3C2=O)C(=O)N1` (centres unmarked) [thalidomide], the “inhibition of PFV integration into MNs” value in assay [3] is listed as “did not show any effect”.
Still for that read-out and setting: in the case of `CC[C@@]1(O)C(=O)OCc2c1cc1n(c2=O)Cc2cc3c(CN(C)C)c(O)ccc3nc2-1` [topotecan] it was “did not show any effect”.
`CCCCC(=O)OCC(=O)[C@]1(O)Cc2c(O)c3c(c(O)c2[C@@H](O[C@H]2C[C@H](NC(=O)C(F)(F)F)[C@H](O)[C@H](C)O2)C1)C(=O)c1c(OC)cccc1C3=O` [valrubicin]: in assay [1] (OncoSET screen), the “selection as intasome/nucleosome modulator in the OncoSET screen” value is recorded as “inefficiency”.

As a reminder, the IC50 is the concentration at which inhibition is half-maximal. Low readings indicate greater potency, high ones weaker potency.
